Reference: patent US20240287071A1, “CLASS OF IMIDAZOLIDINOPYRIMIDONE COMPOUNDS AND USE THEREOF IN TREATMENT OF HSCLPP-MEDIATED DISEASES” (SICHUAN UNIVERSITY, priority 2021, published 2024)

Target: HsClpP (Homo sapiens, UniProt Q16740)
Experiment: HsClpP enzyme hydrolysis of short peptide substrate AC-WLA-AMC
Conditions: promoting hydrolysis of short peptide substrate by HsClpP, relative to blank control

HsClpP, sequence (Q16740 57-277): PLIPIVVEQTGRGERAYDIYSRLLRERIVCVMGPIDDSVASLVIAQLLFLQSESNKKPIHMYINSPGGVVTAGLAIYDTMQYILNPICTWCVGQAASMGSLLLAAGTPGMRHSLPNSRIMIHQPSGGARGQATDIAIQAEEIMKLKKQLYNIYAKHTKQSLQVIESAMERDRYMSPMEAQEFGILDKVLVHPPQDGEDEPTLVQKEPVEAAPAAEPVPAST

Structure (SMILES) | Regulatory efficacy 1 μM | Regulatory efficacy 10 μM
N#Cc1cccc(CN2Cc3c(n4c(nc3=O)N(Cc3ccccc3)CC4)C(F)(F)C2)c1 [Compound 52, 3-((3-benzyl-9,9-difluoro-5-oxo-2,3,6,7,8,9-hexahydroimidazo[1,2-a]pyrido[3,4-e]pyrimidin-7(6H)-yl)methyl)benzonitrile] | + + | + +
N#Cc1cccc(CN2Cc3c(n4c(nc3=O)N(Cc3ccc(Cl)c(Cl)c3)CC4)C(F)(F)C2)c1 [Compound 57, 3-((9,9-difluoro-3-(3,4-dichlorobenzyl)-5-oxo-2,3,6,7,8,9-hexahydroimidazo[1,2-a]pyrido[3,4-e]pyrimidin-7(6H)-yl)methyl)benzonitrile] | + + | + +
Cc1cccc(CN2CCn3c2nc(=O)c2c3C(F)(F)CN(Cc3cccc(C#N)c3)C2)c1 [Compound 58, 3-((9,9-difluoro-3-(3-methylbenzyl)-5-oxo-2,3,6,7,8,9-hexahydroimidazo[1,2-a]pyrido[3,4-e]pyrimidin-7(6H)-yl)methyl)benzonitrile] | + + | + +
O=c1nc2n(c3c1CN(Cc1ccccc1)CC3)CCN2Cc1cccc(Br)c1 [Compound 59, 7-Benzyl-3-(3-bromobenzyl)-2,3,6,7,8,9-hexahydroimidazo[1,2-a]pyrido[3,4-e]pyrimidin-5(1H)-one] | + + | + +
O=c1nc2n(c3c1CN(Cc1ccccc1)CC3)CCN2Cc1ccccc1Cl [Compound 61, 7-Benzyl-3-(2-chlorobenzyl)-2,3,6,7,8,9-hexahydroimidazo[1,2-a]pyrido[3,4-e]pyrimidin-5(1H)-one] | + + | + +
O=c1nc2n(c3c1CN(Cc1ccccc1)CC3)CCN2Cc1ccccc1F [Compound 62, 7-Benzyl-3-(2-fluorobenzyl)-2,3,6,7,8,9-hexahydroimidazo[1,2-a]pyrido[3,4-e]pyrimidin-5(1H)-one] | + + | + +
O=c1nc2n(c3c1CN(Cc1ccccc1)CC3)CCN2Cc1cccc(F)c1 [Compound 63, 7-Benzyl-3-(3-fluorobenzyl)-2,3,6,7,8,9-hexahydroimidazo[1,2-a]pyrido[3,4-e]pyrimidin-5(1H)-one] | + (+ indicating that the increased efficacy is less than 50% of the blank control group) | + +
COc1cccc(CN2CCn3c2nc(=O)c2c3CCN(Cc3ccccc3)C2)c1 [Compound 64, 7-Benzyl-3-(3-methoxybenzyl)-2,3,6,7,8,9-hexahydroimidazo[1,2-a]pyrido[3,4-e]pyrimidin-5(1H)-one] | + + | + +
CCN1CCn2c1nc(=O)c1c2C(F)(F)CN(Cc2ccccc2)C1 [Compound 65, 7-Benzyl-3-ethyl-9,9-difluoro-2,3,6,7,8,9-hexahydroimidazo[1,2-a]pyrido[3,4-e]pyrimidin-5(1H)-one] | + (+ indicating that the increased efficacy is less than 50% of the blank control group) | + +
O=c1nc2n(c3c1CN(Cc1ccccc1)CC3(F)F)CCN2CC1CCCCC1 [Compound 66, 7-Benzyl-3-(cyclohexylmethyl)-9,9-difluoro-2,3,6,7,8,9-hexahydroimidazo[1,2-a]pyrido[3,4-e]pyri midin-5(1H)-one] | + + | + +
O=c1nc2n(c3c1CN(Cc1ccccc1)CC3(F)F)CCN2Cc1ccccc1 [Compound 68, 3,7-Dibenzyl-9,9-difluoro-2,3,6,7,8,9-hexahydroimidazo[1,2-a]pyrido[3,4-e]pyrimidin-5(1H)-one] | + + | + +
O=c1nc2n(c3c1CN(Cc1ccccc1)CC3(F)F)CCN2CCc1ccccc1 [Compound 69, 7-Benzyl-9,9-difluoro-3-phenylethyl-2,3,6,7,8,9-hexahydroimidazo[1,2-a]pyrido[3,4-e]pyrimidin-5(1H)-one] | + + | + +
O=c1nc2n(c3c1CN(Cc1ccccc1)CC3(F)F)CCN2Cc1ccco1 [Compound 70, 7-Benzyl-9,9-difluoro-3-(furan-2-ylmethyl)-2,3,6,7,8,9-hexahydroimidazo [1,2-a]pyrido[3,4-e]pyrimidin-5(1H)-one] | + (+ indicating that the increased efficacy is less than 50% of the blank control group) | + +
O=c1nc2n(c3c1CN(Cc1ccccc1)CC3(F)F)CCN2Cc1ccc(C(F)(F)F)cc1 [Compound 73, 7-Benzyl-9,9-difluoro-3-(4-(trifluoromethyl)benzyl)-2,3,6,7,8,9-hexahydroimidazo[1,2-a]pyrido[3,4-e]pyrimidin-5(1H)-one] | + + | + +
COc1ccccc1CN1CCn2c1nc(=O)c1c2C(F)(F)CN(Cc2ccccc2)C1 [Compound 74, 7-Benzyl-9,9-difluoro-3-(2-methoxybenzyl)-2,3,6,7,8,9-hexahydroimidazo[1,2-a]pyrido[3,4-e]pyrimidin-5(1H)-one] | + + | + +
CS(=O)(=O)c1ccc(CN2CCn3c2nc(=O)c2c3C(F)(F)CN(Cc3ccccc3)C2)cc1 [Compound 75, 7-Benzyl-9,9-difluoro-3-(4-(methylsulfonyl)benzyl)-2,3,6,7,8,9-hexahydroimidazo[1,2-a]pyrido[3,4-e]pyrimidin-5(1H)-one] | + + | + +
O=c1nc2n(c3c1CN(Cc1ccccc1)CC3(F)F)CCN2Cc1ccc(Cl)cc1 [Compound 77, 7-Benzyl-3-(4-chlorobenzyl)-9,9-difluoro-2,3,6,7,8,9-hexahydroimidazo[1,2-a]pyrido[3,4-e]pyrimidi n-5(1H)-one] | + + | + +
O=c1nc2n(c3c1CN(Cc1ccccc1)CC3(F)F)CCN2Cc1ccc(F)c(F)c1 [Compound 80, 7-Benzyl-3-(3,4-difluorobenzyl)-9,9-difluoro-2,3,6,7,8,9-hexahydroimidazo[1,2-a]pyrido[3,4-e]pyrimidin-5(1H)-one] | + + | + +
O=c1nc2n(c3c1CN(Cc1ccccc1)CC3(F)F)CCN2Cc1ccc(F)cc1F [Compound 81, 7-Benzyl-3-(2,4-difluorobenzyl)-9,9-difluoro-2,3,6,7,8,9-hexahydroimidazo[1,2-a]pyrido[3,4-e]pyrimidin-5(1H)-one] | + + | + +

Now from value to compound:

Regulatory efficacy 1 μM | Regulatory efficacy 10 μM | Structure (SMILES)
+ + | + + | COC(=O)c1cccc(CN2CCn3c2nc(=O)c2c3C(F)(F)CN(Cc3cccc(C#N)c3)C2)c1 [Compound 51]
+ + | + + | N#Cc1cccc(CN2Cc3c(n4c(nc3=O)N(Cc3cccc(F)c3)CC4)C(F)(F)C2)c1 [Compound 53, 3-((3-(3-fluorobenzyl)-9,9-difluoro-5-oxo-2,3,6,7,8,9-hexahydroimidazo[1,2-a]pyrido[3,4-e]pyrimidin-7(6H)-yl)methyl)benzonitrile]
+ + | + + | N#Cc1cccc(CN2Cc3c(n4c(nc3=O)N(Cc3ccc(F)c(Br)c3)CC4)C(F)(F)C2)c1 [Compound 54, 3-((3-(3-bromo-4-fluorobenzyl)-9,9-difluoro-5-oxo-2,3,6,7,8,9-hexahydroimidazo[1,2-a]pyrido[3,4-e]pyrimidin-7(6H)-yl)methyl)benzonitrile]
+ + | + + | CC(C)CCN1CCn2c1nc(=O)c1c2C(F)(F)CN(Cc2cccc(C#N)c2)C1 [Compound 55, 3-((9,9-difluoro-3-isopentyl-5-oxo-2,3,6,7,8,9-hexahydroimidazo[1,2-a]pyrido[3,4-e]pyrimidin-7(6H)-yl)methyl)benzonitrile]
+ + | + + | Cc1ccc(CN2CCn3c2nc(=O)c2c3C(F)(F)CN(Cc3cccc(C#N)c3)C2)cc1 [Compound 56, 3-((9,9-difluoro-3-(4-methylbenzyl)-5-oxo-2,3,6,7,8,9-hexahydroimidazo[1,2-a]pyrido[3,4-e]pyrimidin-7(6H)-yl)methyl)benzonitrile]
+ + | + + | O=c1nc2n(c3c1CN(Cc1ccccc1)CC3(F)F)CCN2c1ccccc1 [Compound 67, 7-Benzyl-9,9-difluoro-3-phenyl-2,3,6,7,8,9-hexahydroimidazo[1,2-a]pyrido[3,4-e]pyrimidin-5(1H)-one]
+ + | + + | Cc1ccc(CN2CCn3c2nc(=O)c2c3C(F)(F)CN(Cc3ccccc3)C2)cc1 [Compound 72, 7-Benzyl-9,9-difluoro-3-(4-methylbenzyl)-2,3,6,7,8,9-hexahydroimidazo[1,2-a]pyrido[3,4-e]pyrimid in-5(1H)-one]
+ + | + + | O=c1nc2n(c3c1CN(Cc1ccccc1)CC3(F)F)CCN2Cc1ccc(Br)cc1 [Compound 78, 7-Benzyl-3-(4-bromobenzyl)-9,9-difluoro-2,3,6,7,8,9-hexahydroimidazo[1,2-a]pyrido[3,4-e]pyrimidin-5(1H)-one]
+ + | + + | O=c1nc2n(c3c1CN(Cc1ccccc1)CC3(F)F)CCN2Cc1ccc(Cl)c(Cl)c1 [Compound 79, 7-Benzyl-3-(3,4-dichlorobenzyl)-9,9-difluoro-2,3,6,7,8,9-hexahydroimidazo[1,2-a]pyrido[3,4-e]pyrimidin-5(1H)-one]
